Experimental data as given in patent publication US6914045B2, “Glycopeptide antibiotics” (Wyeth Holdings Corporation, priority 2001, dated 2005).
Values after ≈ are worked out from the molar mass of the structure shown.

Legend:
Enterococcus sp. = test: in vitro antibacterial evaluation, MIC by broth dilution; assay type: cell-based; details: broth dilution, 18 hours at 35° C.
Method in brief: (§1)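 Step 1: dilute antibiotic across 64-0.06 μg/mL in Muller-Hinton II […]. Step 2: inoculate at 5×10^5 CFU/mL.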

Escherichia coli = test: as above; assay type: cell-based
Method in brief: as §1

Staphylococcus sp. = test: as above; assay type: cell-based; details: broth dilution, 18 hours at 35° C.; for MIC Staphylococcus aureus (GC 1131): strain GC 1131
Method in brief: as §1

Streptococcus sp. = test: as above; assay type: cell-based; details: broth dilution, 18 hours at 35° C.
Method in brief: as §1

[1] = clinical pathology (serum clinical chemistry) in mice; assay type: in vivo; details: CD-1 mice, 20 mg/kg intravenously daily for 9 days, sera day 10
Description: 20-day-old CD-1 mice were divided into a vehicle control group (5 mice) and a treatment group (5 mice). Samples of glycopeptide antibiotics were administered at 20 mg/kg intravenously daily for 9 days.

[2] = anatomic pathology (histopathology of heart and kidney) in mice; assay type: in vivo; details: CD-1 mice, 20 mg/kg intravenously daily for 9 days, necropsy day 10, microscopic histopathology
Description: Samples of tissues from necropsied mice were formalin-fixed, paraffin-embedded, sectioned, stained with hematoxylin and eosin, and examined microscopically. Histopathologic findings were recorded. These findings were subjectively graded on a scale corresponding to slight, mild, moderate, marked and severe as compared to untreated controls.

SMILES: CC(c1ccccc1)C1NC(=O)CNC(=O)C(CO)NC(=O)C(C(O)C2CNC(=N)N2C2OC(CO)C(O)C(O)C2O)NC(=O)C(C(O)C2CNC(=N)N2)NC(=O)C(Cc2ccc(OC3OC(CO)C(OC4OC5COC(c6ccc(C(=O)O)cc6)OC5C(O)C4O)C(O)C3O)cc2)NC1=O (stereo not drawn) [Example 141, Cyclo[glycyl-β-methylphenylalanyl-O-[4-O-[4,6-O-(4-carboxybenzylidene)hexopyranosyl]-hexopyranosyl]tyrosyl-3-(2-iminoimidazolidin-4-yl)seryl-3-(3-hexopyranosyl-2-iminoimidazolidin-4-yl)serylseryl]]
- MIC Enterococcus avium (GC 4558) (Enterococcus sp.; Enterococcus avium (GC 4558)): >64 µg/mL
- MIC Enterococcus faecalis (ATCC 29212) (Enterococcus sp.; Enterococcus faecalis (ATCC 29212)): >64 µg/mL
- MIC Enterococcus faecalis (GC 2242) (Enterococcus sp.; Enterococcus faecalis (GC 2242)): >64 µg/mL
- MIC Enterococcus faecalis (GC 2691) (Enterococcus sp.; Enterococcus faecalis (GC 2691)): >64 µg/mL
- MIC Enterococcus faecalis (GC 3059) (Enterococcus sp.; Enterococcus faecalis (GC 3059)): >64 µg/mL
- MIC Enterococcus faecalis (GC 4552) (Enterococcus sp.; Enterococcus faecalis (GC 4552)): >64 µg/mL
- MIC Enterococcus faecalis (GC 4553) (Enterococcus sp.; Enterococcus faecalis (GC 4553)): >64 µg/mL
- MIC Enterococcus faecalis (GC 4554) (Enterococcus sp.; Enterococcus faecalis (GC 4554)): >64 µg/mL
- MIC Enterococcus faecalis (GC 6189) (Enterococcus sp.; Enterococcus faecalis (GC 6189)): >64 µg/mL
- MIC Enterococcus faecium (GC 2243) (Enterococcus sp.; Enterococcus faecium (GC 2243)): >64 µg/mL
- MIC Enterococcus faecium (GC 4556) (Enterococcus sp.; Enterococcus faecium (GC 4556)): >64 µg/mL
- MIC Enterococcus faecium (GC 4557) (Enterococcus sp.; Enterococcus faecium (GC 4557)): 64 µg/mL (≈ 44.8 µM)
- MIC Enterococcus faecalis (ATCC 29212) (Enterococcus sp.; strain ATCC 29212): >64 µg/mL
- MIC Enterococcus faecalis (GC 2242) (Enterococcus sp.; strain GC 2242): >64 µg/mL
- MIC Enterococcus faecium (GC 2243) (Enterococcus sp.; strain GC 2243): >64 µg/mL
- MIC Enterococcus faecalis (GC 2691) (Enterococcus sp.; strain GC 2691): >64 µg/mL
- MIC Enterococcus faecalis (GC 3059) (Enterococcus sp.; strain GC 3059): >64 µg/mL
- MIC Enterococcus faecalis (GC 4552) (Enterococcus sp.; strain GC 4552): >64 µg/mL
- MIC Enterococcus faecalis (GC 4553) (Enterococcus sp.; strain GC 4553): >64 µg/mL
- MIC Enterococcus faecalis (GC 4554) (Enterococcus sp.; strain GC 4554): >64 µg/mL
- MIC Enterococcus faecium (GC 4556) (Enterococcus sp.; strain GC 4556): >64 µg/mL
- MIC Enterococcus faecium (GC 4557) (Enterococcus sp.; strain GC 4557): 64 µg/mL (≈ 44.8 µM)
- MIC Enterococcus avium (GC 4558) (Enterococcus sp.; strain GC 4558): >64 µg/mL
- MIC Enterococcus faecalis (GC 6189) (Enterococcus sp.; strain GC 6189): >64 µg/mL
- MIC Escherichia coli (ATCC 25922) (Escherichia coli; strain ATCC 25922, 18 hours at 35° C.): >64 µg/mL
- MIC Escherichia coli (GC 4559) (Escherichia coli; strain GC 4559, 18 hours at 35° C.): >64 µg/mL
- MIC Escherichia coli (GC 4560) (Escherichia coli; strain GC 4560, 18 hours at 35° C.): >64 µg/mL
- MIC Staphylococcus aureus (GC 1131) (Staphylococcus sp.; inoculum 5×10^5 CFU/mL): >64 µg/mL
- MIC Staphylococcus aureus (ATCC 29213) (Staphylococcus sp.; strain ATCC 29213): >64 µg/mL
- MIC Staphylococcus aureus (GC 1131) (Staphylococcus sp.): >64 µg/mL
- MIC Staphylococcus aureus (GC 3051) (Staphylococcus sp.; strain GC 3051): >64 µg/mL
- MIC Staphylococcus aureus (GC 3053) (Staphylococcus sp.; strain GC 3053): >64 µg/mL
- MIC Staphylococcus aureus (GC 4541) (Staphylococcus sp.; strain GC 4541): >64 µg/mL
- MIC Staphylococcus aureus (GC 4542) (Staphylococcus sp.; strain GC 4542): >64 µg/mL
- MIC Staphylococcus aureus-SMITH (GC 4543) (Staphylococcus sp.; strain GC 4543): >64 µg/mL
- MIC Staphylococcus aureus (GC 4544) (Staphylococcus sp.; strain GC 4544): >64 µg/mL
- MIC Staphylococcus aureus (GC 4545) (Staphylococcus sp.; strain GC 4545): >64 µg/mL
- MIC Staphylococcus haemolyticus (GC 4546) (Staphylococcus sp.; strain GC 4546): >64 µg/mL
- MIC Coagulase Negative Staphylococcus (GC 4547) (Staphylococcus sp.; strain GC 4547): >64 µg/mL
- MIC Coagulase Negative Staphylococcus (GC 4548) (Staphylococcus sp.; strain GC 4548): >64 µg/mL
- MIC Coagulase Negative Staphylococcus (GC 4549) (Staphylococcus sp.; strain GC 4549): >64 µg/mL
- MIC Coagulase Negative Staphylococcus (GC 4551) (Staphylococcus sp.; strain GC 4551): >64 µg/mL
- MIC Coagulase Negative Staphylococcus (GC 6257) (Staphylococcus sp.; strain GC 6257): >64 µg/mL
- MIC Staphylococcus aureus-SMITH (GC 4543) (Staphylococcus sp.; strain SMITH GC 4543): >64 µg/mL
- MIC Streptococcus agalactiae (GC 4564) (Streptococcus sp.; Streptococcus agalactiae (GC 4564)): >64 µg/mL
- MIC Streptococcus pneumoniae (ATCC 6301) (Streptococcus sp.; Streptococcus pneumoniae (ATCC 6301)): >64 µg/mL
- MIC Streptococcus pneumoniae (GC 1894) (Streptococcus sp.; Streptococcus pneumoniae (GC 1894)): >64 µg/mL
- MIC Streptococcus pneumoniae (GC 4565) (Streptococcus sp.; Streptococcus pneumoniae (GC 4565)): >64 µg/mL
- MIC Streptococcus pyogenes (GC 4563) (Streptococcus sp.; Streptococcus pyogenes (GC 4563)): >64 µg/mL
- MIC Streptococcus pneumoniae (ATCC 6301) (Streptococcus sp.; strain ATCC 6301): >64 µg/mL
- MIC Streptococcus pneumoniae (GC 1894) (Streptococcus sp.; strain GC 1894): >64 µg/mL
- MIC Streptococcus pyogenes (GC 4563) (Streptococcus sp.; strain GC 4563): >64 µg/mL
- MIC Streptococcus agalactiae (GC 4564) (Streptococcus sp.; strain GC 4564): >64 µg/mL
- MIC Streptococcus pneumoniae (GC 4565) (Streptococcus sp.; strain GC 4565): >64 µg/mL
- Clinical Chemistry (Day 10) % of Control, BUN [1]: +308%
- Clinical Chemistry (Day 10) % of Control, Creatinine [1]: +113%
- Anatomical Pathology (Day 10), Heart [2]: 0
- Anatomical Pathology (Day 10), Kidney [2]: +++
